Here are results for 19 molecules from publication PMC12261321, “Inhibitors of the Bacterioferritin Ferredoxin Complex Dysregulate Iron Homeostasis and Kill and Biofilm-Embedded Cells” (ACS Infectious Diseases, 2025).

Common to all, as to type: cell-based
Data set [1] relates to P. aeruginosa PAO1 biofilm. In words: Pellicle biofilm assay, % survival of biofilm cells. The following applies: for % Survival Biofilm, P. aeruginosa PAO1: 24 h; for biofilm cell death: 27 h old pellicle biofilms treated 24 h. How it is done:
We studied the susceptibility of mature biofilms to treatment with analogues of 4-aminoisoindoline-1,3-dione using biofilms cultured at the […] interface (pellicles) using methodology reported previously. To determine the susceptibility of pellicle biofilms to inhibitors of the Pa Bfr–Bfd complex, we cultured 27 h old biofilms in PI media supplemented with 20 μM Fe, as presented in Experimental Methods. The mature biofilms were transferred onto glass coverslips by touching the pellicle with the surface of the coverslips. The coverslip-adhered biofilms were then exposed to treatment solution consisting of AB media supplemented with 20 μM Fe, 1.5% DMSO, 0.025% HPMC, and 4-aminoisoindoline-1,3-dione derivative or commercial antibiotic for 24 h. The biofilms were then harvested and washed, and the cells were dispersed into sterile PBS by vortexing in the presence of zirconia beads prior to plating and enumerating viable cells (CFU/mL) to calculate % cell survival.
Biofilm Assays. Pellicle biofilms formed by EYF P-expressing P. aeruginosa PAO1 wer e carried ou t as repo rted previously,13 with some modifications. Starter cultures were diluted to OD600 = 0.001 in 4 mL PI media supplement ed with 20 µM Fe , trans ferred to petri dishes (35 x 10 mm) and incubated statically for 27 h at 30 °C.
The pellicles were transferred onto circular microscope glass coverslips (12 mm diameter) by gently allowing the surface of a coverslip to contact the pellicle. Th e biofilm- attached coverslip was washed (3 x) by floating it on top of PBS with the biofilm exposed to the liquid and then placed on top of 1.5 mL AB challenge media in a well of a 12-well microplate, with the biofilm exposed to the media at 30 °C for 24 h. AB challenge media is AB minimal media supplemented with 1.5% DMSO, 0.025% HPMC, 20 μ M Fe, and 4-aminoisoindoline-1,3- dione […]
The 4-aminoisoindoline-1,3- dione derivative solutions were prep ared from powder as 10 mM st ock solutions in DMSO and then diluted in AB challenge media to the appropriate concentrations. Following the 24 h challenge, planktonic and loosely attached cells were washed 3 times by floating the coverslip-attached biofilms with the biofilm facing down into a petri d ish (60 x 15 mm) containing 15 mL PBS, and incubating for 5 min. The biofilm was removed from the coversli p and the cells releas ed f rom the extra cel lular matrix by placing th e cov erslip-attach ed biofi lm in a 50 mL conical tub e containing a 2-mL sup ension of zirconia beads (0.1 mm diam eter, BiosSpec Produ cts), 10 mL PBS, 1 mM MgSO4, 20 µg/mL alginate lyase and 40 µg/mL DNAse. The mixture was incubated for three min at room temperature, and then vigorously vortexed for four min. Following sedimentation of the zirconia beads, a 100 μ L aliquot was utilized for serial dilution in PBS and plating on PIA plates for viable cell enumeration (CFU/mL). […]

The subject of data set [2] is A. baumannii 5075. As to the kind of experiment: Compound intracellular accumulation in A. baumannii 5075. The following applies: cells treated with 30 µM compound. Here is the method:
(§1) Determination of Compound Intracellular Accumulation. These experiments were carri ed out as reported previously,16 with modifications. Starter cultures o f P. aeruginosa PAO1 or A. baumannii 5075 were centrifuged for 10 min at 3148 x g and 4 °C, resuspended in 5 mL of fresh LB, diluted to OD 600 = 0.03 in fresh LB media (250 mL), and then cultured at 35 °C and 220 rpm for 4 h. Th e resultant cul ture was diluted to OD600 = 0.4 in 250 mL LB and centrifuged at 4 °C and 3470 x g for 10 min. The cell pellet was resuspended in 20 mL of PBS and transfer red to a 50 mL conical tube, where it was centrifuged at 4 °C and 3148 x g for 20 min. The cell pellet was resuspended in 15 mL of PBS supplemented with 0.05% (w/v) HPMC and the suspension was divided equally into two new conical tubes. One of th e tubes was treated with 150 µL of DMSO (control), while the second tube was treated with 150 µL of compound in DMSO solution to produce a compound final concentration of 30 µM or 15 µM. The resultant mixtures were incubated at 37 °C and 220 rpm for 15 min, placed on ice for 1 min, and then centrifuged at 3148 x g rpm and 4 °C for 10 min. The cell pellet was resuspended in 7.5 mL of ice -cold PBS and vortexed (10 s, five t imes). 200 µL of the cell suspension was used to plate and enumerate viable cells, and 800 µL of the suspension was lay ered onto 700 µL of chilled silicon oil contained in 1.5 mL Eppendo rf tubes and then centrifuged at 4 °C ( 900 x g) for 10 min, then again at 16,200 x g for 5 min to allow pass ag e of the cell suspension through the silicon oil layer. The aqueous and oil layers were removed, and the cell pellet was washed twice in PBS (800 μ L), each time transferring the cell suspension to a new Eppendorf tube and then centrifuging at 16,200 x g. The cell pellet was lysed in 800 µL methanol by vortexing followed by 10 min incubationat room temperatur e. The lysate suspension was pelleted, the supernatant was transferred to a new Eppendorf tube and then placed into a vacuum concentrator (Eppendorf 5301 Vacufuge) to evaporate the methanol (4 h). The dried […]
(§2) cell lysate was resuspend ed in 600 µL of DMSO and centrifuged at 16,200 x g rpm for 5 min at room temperature.
(§3) The clarified supernatant was titrated with small volumes of 250 µM compound stock, measuring the fluorescen ce after the addition of each aliquot with the aid of a Cary Eclipse Fluorescence Spectrometer (Agilent). The compound concentration was determined utilizing the standard addition method,17 and compound accumulation is reported as nmol compound/1012 CFU/mL. […]
(§4) Eclipse) fluorescen ce sp ectrophotometer. The flu orescen ce intensity of th e treated sample (FI)Tr and that of the untreated control (FI)Un was normalized to the corresponding OD600 and the ratio (FI/OD600)Tr / (F I/ OD600)Un is […]
(§5) The determination for each of the compounds was carri ed out in 5 biological replicates.
(§6) Determination of Siderophores Secreted by A. baumannii . The chromo azurol S (CAS) solution was prepared as previously reported18 with some modifications. The blue dye solution (0.6 g/L CAS ( ACROS Organics), 100 μM FeCl3·6H2O, and 0.73 g/L hexadecyltrimethylammonium bromide (HDTMA, ACROS Organics) was autoclaved and stored in the dark. The MM9-PIPES buffer solution (3 g/L KH2PO4, 5 g/L NaCl, 10 g/L NH4C l, 32.24 g/L piperazine -1,4-bis-2- ethanesulfonic acid (PIPES , Sigma Aldrich), pH 6.75) was sterilized using a 0.22 µm syringe filter (VWR). Prior to every experimen t, blue dye solution (0.5 mL) was mixed with 4.5 mL of MM9-PIPES solution. An overnight culture of A. baumannii 5075 was diluted to OD600 = 0.0001 with modified M63 media (no citric acid) supplemented with 4 μ M Fe and transferred to a 96-well plate, wh ere it was cul tured for 20

Data set [3] concerns P. aeruginosa PAO1. As to the kind of experiment: Compound intracellular accumulation in P. aeruginosa PAO1. The note with it: cells treated with 30 µM compound. How it is done: as §1, §2, §3, §4, §5, §6
The mark [4] stands for this setting: biofilm challenged with 50 µM compound.
[5] abbreviates: biofilm challenged with 20 µM compound.

As to `O=C1NC(=O)c2c(NCc3ccccc3O)cccc21` [Analog 11, 4-((2-Hydroxybenzyl)amino)isoindoline-1,3-dione], the “% Survival Biofilm, P. aeruginosa PAO1” value in data set [1] (setting [4]) came out at 87 ± 6%. Moreover, in data set [2], the “Intracell. Accum, A. baumannii 5075” value came out at 55 ± 15 nmol/1012 CFU.

As to `O=C1NC(=O)c2c(NCc3ccc(Br)cc3O)cccc21` [EB-5-61], the “% Survival Biofilm, P. aeruginosa PAO1” value in data set [1] (setting [4]) came to 8 ± 2%. Moreover, in data set [3], the “Intracell. Accum, P. aeruginosa PAO1” value is reported as 197 ± 17 nmol/1012 CFU.

On to `Cc1ccc(CNc2cccc3c2C(=O)NC3=O)c(O)c1` [EB-5-69], for which the “% Survival Biofilm, P. aeruginosa PAO1” value in data set [1] (setting [4]) came to 64 ± 1%. Also, the “Intracell. Accum, A. baumannii 5075” value in data set [2] worked out at 193 ± 33 nmol/1012 CFU. Further, the “Intracell. Accum, P. aeruginosa PAO1” value in data set [3] is reported as 52 ± 2 nmol/1012 CFU.

On to `Cc1cccc(CNc2cccc3c2C(=O)NC3=O)c1O` [EB-5-70], for which the “% Survival Biofilm, P. aeruginosa PAO1” value in data set [1] (setting [4]) is given as 105 ± 2%. In addition, the “Intracell. Accum, A. baumannii 5075” value in data set [2] is reported as 99 ± 15 nmol/1012 CFU.

As for `O=C1NC(=O)c2c(NCc3c(O)cccc3F)cccc21` [EB-5-71], the “% Survival Biofilm, P. aeruginosa PAO1” value in data set [1] (setting [4]) is on record as 52 ± 10%. Besides, the “Intracell. Accum, A. baumannii 5075” value in data set [2] was found to be 495 ± 35 nmol/1012 CFU.

Take `O=C1NC(=O)c2c(NCc3c(O)cccc3Br)cccc21` [EB-5-72]: the “% Survival Biofilm, P. aeruginosa PAO1” value in data set [1] (setting [4]) is 45 ± 0.4%.

Turning to `O=C1NC(=O)c2c(NCc3cccc(Br)c3O)cccc21` [EB-5-73], the “% Survival Biofilm, P. aeruginosa PAO1” value in data set [1] (biofilm challenged with 30 µM compound) stood at 78 ± 14%. Moreover, the “Intracell. Accum, A. baumannii 5075” value in data set [2] is reported as 201 ± 30 nmol/1012 CFU. In data set [3], the “Intracell. Accum, P. aeruginosa PAO1” value was 34 ± 9 nmol/1012 CFU.

For `O=C1NC(=O)c2c(NCc3cccc(F)c3O)cccc21` [EB-5-80], in data set [1] (setting [4]), the “% Survival Biofilm, P. aeruginosa PAO1” value is reported as 106 ± 23%. In addition, the “Intracell. Accum, A. baumannii 5075” value in data set [2] is on record as 44 ± 6 nmol/1012 CFU. Further, the “Intracell. Accum, P. aeruginosa PAO1” value in data set [3] was 11 ± 3 nmol/1012 CFU.

With `O=C1NC(=O)c2c(NCc3cc(F)ccc3O)cccc21` [JAG-5-7], the “% Survival Biofilm, P. aeruginosa PAO1” value in data set [1] (setting [4]) worked out at 85 ± 16%. Further, the “Intracell. Accum, A. baumannii 5075” value in data set [2] was 157 ± 54 nmol/1012 CFU. In data set [3], the “Intracell. Accum, P. aeruginosa PAO1” value is 28 ± 10 nmol/1012 CFU.

On to `O=C1NC(=O)c2c(NCc3cc(Cl)ccc3O)cccc21` [KM-5-25, 4-((5-Chloro-2-hydroxybenzyl)amino)isoindoline-1,3-dione], for which the biofilm cell death entry in data set [1] is on record as “concentration-dependent biofilm cell death”. Moreover, in data set [1] (setting [4]), the “% Survival Biofilm, P. aeruginosa PAO1” value amounted to 17 ± 6%. In addition, the “Intracell. Accum, P. aeruginosa PAO1” value in data set [3] was determined as 270 ± 48 nmol/1012 CFU.

In the case of `O=C1NC(=O)c2c(NCc3cc(Br)ccc3O)cccc21` [KM-5-35, 4-((5-Bromo-2-hydroxybenzyl)amino)isoindoline-1,3-dione], the biofilm cell death entry in data set [1] is on record as “concentration-dependent biofilm cell death”. In addition, the “% Survival Biofilm, P. aeruginosa PAO1” value in data set [1] (setting [4]) is listed as 10 ± 4%. Moreover, the “Intracell. Accum, P. aeruginosa PAO1” value in data set [3] is given as 360 ± 22 nmol/1012 CFU.

As to `O=C1NC(=O)c2c(NCc3cc(F)ccc3O)ccc(Br)c21` [SB-16-67], the “Intracell. Accum, A. baumannii 5075” value in data set [2] is 1173 ± 53 nmol/1012 CFU. The “Intracell. Accum, P. aeruginosa PAO1” value in data set [3] is on record as 187 ± 59 nmol/1012 CFU.

Regarding `O=C1NC(=O)c2c(NCc3cc(Br)cc(F)c3O)cccc21` [SB-16-118], the “% Survival Biofilm, P. aeruginosa PAO1” value in data set [1] (biofilm challenged with 40 µM compound) is 13 ± 2%. Also, in data set [3], the “Intracell. Accum, P. aeruginosa PAO1” value came to 126 ± 40 nmol/1012 CFU.

Consider `O=C1NC(=O)c2c(NCc3cc(Br)cc(O)c3O)cccc21` [SB-16-136], for which, in data set [1] (setting [4]), the “% Survival Biofilm, P. aeruginosa PAO1” value worked out at 63 ± 2%.

For `O=C1NC(=O)c2c(NCc3cc(Cl)c(O)cc3O)cccc21` [SB-16-160], the “% Survival Biofilm, P. aeruginosa PAO1” value in data set [1] (setting [4]) is listed as “Not active”.

`O=C1NC(=O)c2c(NCc3cc(Cl)cc(O)c3O)cccc21` [SB-16-168]: the “% Survival Biofilm, P. aeruginosa PAO1” value in data set [1] (setting [4]) is reported as “Not active”.

In the case of `O=C1NC(=O)c2c(NCc3cc(Br)cc(O)c3O)ccc(Br)c21` [SB-16-250], the “% Survival Biofilm, P. aeruginosa PAO1” value in data set [1] (setting [5]) is given as “Not active”.

Turning to `O=C1NC(=O)c2c(NCc3ccc4c(c3)COC4)cccc21` [SB-17-80], the “% Survival Biofilm, P. aeruginosa PAO1” value in data set [1] (setting [5]) is given as “Not active”.

Regarding `O=C1NC(=O)c2c(NCc3cccc4c3CCN4)cccc21` [SB-17-140], in data set [1] (setting [4]), the “% Survival Biofilm, P. aeruginosa PAO1” value was “Not active”.
